From PMC10924921, “Mi-2β promotes immune evasion in melanoma by activating EZH2 methylation” (Nature Communications, 2024)

Tests used:
Test in all cases: biochemical
Set-up in all cases: KINOMEscan active-site competition binding panel (468 kinase assays), per cent of control at 1000 nM
Settings in all cases: KINOMEscan per cent of control (binding competition); read-out: Percent Control
[1] = biological target: T1, ABL1(F317L)-phosphorylated (Homo sapiens, UniProt P00519, F317L)
T1 construct: phosphorylated
Excerpt: (§1) Figure S7 / Percent Control

ACVR2A = ACVR2A (Homo sapiens, UniProt P27037)
Sequence of ACVR2A (P27037 whole entry): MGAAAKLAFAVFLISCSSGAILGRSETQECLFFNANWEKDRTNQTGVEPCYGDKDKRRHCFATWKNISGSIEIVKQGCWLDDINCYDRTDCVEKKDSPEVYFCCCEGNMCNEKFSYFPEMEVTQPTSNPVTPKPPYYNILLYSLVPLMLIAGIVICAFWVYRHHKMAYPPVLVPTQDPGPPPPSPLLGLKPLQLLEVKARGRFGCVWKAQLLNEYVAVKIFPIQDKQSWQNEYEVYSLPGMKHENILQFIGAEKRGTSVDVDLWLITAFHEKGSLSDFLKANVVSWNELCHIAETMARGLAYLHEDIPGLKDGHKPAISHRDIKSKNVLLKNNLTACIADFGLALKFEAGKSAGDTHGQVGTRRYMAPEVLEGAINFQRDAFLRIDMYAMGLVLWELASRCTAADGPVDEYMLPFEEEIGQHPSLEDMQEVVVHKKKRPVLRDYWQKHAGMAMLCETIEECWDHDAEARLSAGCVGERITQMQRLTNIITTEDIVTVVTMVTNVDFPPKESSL
Excerpt: as §1

ARK5 = biological target: T2, ARK5 (Homo sapiens, UniProt O60285)
T2 construct: gene NUAK1
Excerpt: as §1

AURKC = AURKC (Homo sapiens, UniProt Q9UQB9)
Sequence of AURKC (Q9UQB9 whole entry): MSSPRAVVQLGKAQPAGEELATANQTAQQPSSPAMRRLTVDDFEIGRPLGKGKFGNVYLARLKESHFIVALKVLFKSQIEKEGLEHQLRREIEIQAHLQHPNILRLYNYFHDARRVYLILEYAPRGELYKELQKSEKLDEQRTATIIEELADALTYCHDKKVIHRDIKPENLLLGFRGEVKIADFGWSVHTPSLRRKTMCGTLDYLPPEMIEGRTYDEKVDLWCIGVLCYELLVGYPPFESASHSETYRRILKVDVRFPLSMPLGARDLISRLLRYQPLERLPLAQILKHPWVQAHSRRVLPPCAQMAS
Excerpt: as §1

BMPR2 = BMPR2 (Homo sapiens, UniProt Q13873)
Excerpt: as §1

BRAF(V600E) = BRAF(V600E) (Homo sapiens, UniProt P15056, V600E)
Excerpt: as §1

BRK = biological target: T3, BRK (Homo sapiens, UniProt Q13882)
T3 construct: gene PTK6
Excerpt: as §1

CDC2L5 = biological target: T4, CDC2L5 (Homo sapiens, UniProt Q14004)
T4 construct: gene CDK13
T4 sequence (Q14004 whole entry): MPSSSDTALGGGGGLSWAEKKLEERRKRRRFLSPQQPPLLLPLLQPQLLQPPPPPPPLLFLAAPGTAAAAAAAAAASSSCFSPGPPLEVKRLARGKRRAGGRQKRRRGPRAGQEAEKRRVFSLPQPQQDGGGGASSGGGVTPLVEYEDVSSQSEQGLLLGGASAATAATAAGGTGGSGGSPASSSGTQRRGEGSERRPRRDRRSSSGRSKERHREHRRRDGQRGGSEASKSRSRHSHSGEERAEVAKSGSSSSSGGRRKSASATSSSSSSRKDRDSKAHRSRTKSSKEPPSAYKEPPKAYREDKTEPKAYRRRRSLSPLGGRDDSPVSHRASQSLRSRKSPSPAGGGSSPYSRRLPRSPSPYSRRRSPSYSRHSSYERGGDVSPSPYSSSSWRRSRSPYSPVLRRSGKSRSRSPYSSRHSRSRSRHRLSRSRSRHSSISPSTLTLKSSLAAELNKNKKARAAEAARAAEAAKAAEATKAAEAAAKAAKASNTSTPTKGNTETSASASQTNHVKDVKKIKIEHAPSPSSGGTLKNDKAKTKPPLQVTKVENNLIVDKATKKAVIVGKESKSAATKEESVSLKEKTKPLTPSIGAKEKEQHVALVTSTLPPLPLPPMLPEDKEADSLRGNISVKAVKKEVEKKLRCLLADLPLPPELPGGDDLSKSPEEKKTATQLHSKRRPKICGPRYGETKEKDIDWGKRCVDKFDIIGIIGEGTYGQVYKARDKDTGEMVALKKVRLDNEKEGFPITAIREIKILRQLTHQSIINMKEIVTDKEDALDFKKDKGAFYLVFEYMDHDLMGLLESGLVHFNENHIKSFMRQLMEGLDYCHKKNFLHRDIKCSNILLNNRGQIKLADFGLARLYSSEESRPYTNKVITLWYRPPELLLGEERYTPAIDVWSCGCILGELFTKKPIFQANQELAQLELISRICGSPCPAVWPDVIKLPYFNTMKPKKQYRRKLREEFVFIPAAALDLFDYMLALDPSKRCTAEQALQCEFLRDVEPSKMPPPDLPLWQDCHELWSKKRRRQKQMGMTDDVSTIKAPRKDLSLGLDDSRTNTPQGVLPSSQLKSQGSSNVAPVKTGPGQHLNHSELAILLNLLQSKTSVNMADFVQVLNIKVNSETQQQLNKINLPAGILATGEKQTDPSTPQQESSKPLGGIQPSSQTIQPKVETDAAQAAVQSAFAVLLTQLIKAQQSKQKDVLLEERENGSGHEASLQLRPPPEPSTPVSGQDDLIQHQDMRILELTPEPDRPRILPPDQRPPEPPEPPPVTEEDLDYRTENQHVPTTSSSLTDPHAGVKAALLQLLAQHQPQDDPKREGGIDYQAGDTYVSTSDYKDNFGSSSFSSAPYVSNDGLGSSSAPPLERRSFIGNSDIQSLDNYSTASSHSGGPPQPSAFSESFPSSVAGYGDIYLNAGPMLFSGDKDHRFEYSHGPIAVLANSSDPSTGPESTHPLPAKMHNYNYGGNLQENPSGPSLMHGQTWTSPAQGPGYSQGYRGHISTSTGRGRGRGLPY
Excerpt: as §1

CSNK2A2 = CSNK2A2 (Homo sapiens, UniProt P19784)
Excerpt: as §1

DAPK3 = DAPK3 (Homo sapiens, UniProt O43293)
Excerpt: as §1

EGFR(L861Q) = EGFR(L861Q) (Homo sapiens, UniProt P00533, L861Q)
Excerpt: as §1

FER = FER (Homo sapiens, UniProt P16591)
Excerpt: as §1

FLT3 = FLT3 (Homo sapiens, UniProt P36888)
Excerpt: as §1

FLT3(ITD) = FLT3(ITD) (Homo sapiens, UniProt P36888, ITD)
Excerpt: as §1

IGF1R = IGF1R (Homo sapiens, UniProt P08069)
Excerpt: as §1

MARK3 = MARK3 (Homo sapiens, UniProt P27448)
Excerpt: as §1

MEK6 = biological target: T5, MEK6 (Homo sapiens, UniProt P52564)
T5 construct: gene MAP2K6
T5 sequence (P52564 whole entry): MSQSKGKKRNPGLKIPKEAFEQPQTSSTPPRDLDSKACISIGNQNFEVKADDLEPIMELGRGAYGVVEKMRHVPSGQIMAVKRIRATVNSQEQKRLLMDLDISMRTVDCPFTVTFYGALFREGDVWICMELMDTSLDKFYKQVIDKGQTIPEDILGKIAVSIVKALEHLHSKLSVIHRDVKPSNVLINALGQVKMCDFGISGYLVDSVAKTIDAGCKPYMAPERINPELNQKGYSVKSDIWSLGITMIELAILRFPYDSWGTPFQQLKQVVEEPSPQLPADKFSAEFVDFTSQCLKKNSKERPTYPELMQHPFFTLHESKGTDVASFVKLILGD
Excerpt: as §1

MINK = biological target: T6, MINK (Homo sapiens, UniProt Q8N4C8)
T6 construct: gene MINK1
T6 sequence (Q8N4C8 whole entry): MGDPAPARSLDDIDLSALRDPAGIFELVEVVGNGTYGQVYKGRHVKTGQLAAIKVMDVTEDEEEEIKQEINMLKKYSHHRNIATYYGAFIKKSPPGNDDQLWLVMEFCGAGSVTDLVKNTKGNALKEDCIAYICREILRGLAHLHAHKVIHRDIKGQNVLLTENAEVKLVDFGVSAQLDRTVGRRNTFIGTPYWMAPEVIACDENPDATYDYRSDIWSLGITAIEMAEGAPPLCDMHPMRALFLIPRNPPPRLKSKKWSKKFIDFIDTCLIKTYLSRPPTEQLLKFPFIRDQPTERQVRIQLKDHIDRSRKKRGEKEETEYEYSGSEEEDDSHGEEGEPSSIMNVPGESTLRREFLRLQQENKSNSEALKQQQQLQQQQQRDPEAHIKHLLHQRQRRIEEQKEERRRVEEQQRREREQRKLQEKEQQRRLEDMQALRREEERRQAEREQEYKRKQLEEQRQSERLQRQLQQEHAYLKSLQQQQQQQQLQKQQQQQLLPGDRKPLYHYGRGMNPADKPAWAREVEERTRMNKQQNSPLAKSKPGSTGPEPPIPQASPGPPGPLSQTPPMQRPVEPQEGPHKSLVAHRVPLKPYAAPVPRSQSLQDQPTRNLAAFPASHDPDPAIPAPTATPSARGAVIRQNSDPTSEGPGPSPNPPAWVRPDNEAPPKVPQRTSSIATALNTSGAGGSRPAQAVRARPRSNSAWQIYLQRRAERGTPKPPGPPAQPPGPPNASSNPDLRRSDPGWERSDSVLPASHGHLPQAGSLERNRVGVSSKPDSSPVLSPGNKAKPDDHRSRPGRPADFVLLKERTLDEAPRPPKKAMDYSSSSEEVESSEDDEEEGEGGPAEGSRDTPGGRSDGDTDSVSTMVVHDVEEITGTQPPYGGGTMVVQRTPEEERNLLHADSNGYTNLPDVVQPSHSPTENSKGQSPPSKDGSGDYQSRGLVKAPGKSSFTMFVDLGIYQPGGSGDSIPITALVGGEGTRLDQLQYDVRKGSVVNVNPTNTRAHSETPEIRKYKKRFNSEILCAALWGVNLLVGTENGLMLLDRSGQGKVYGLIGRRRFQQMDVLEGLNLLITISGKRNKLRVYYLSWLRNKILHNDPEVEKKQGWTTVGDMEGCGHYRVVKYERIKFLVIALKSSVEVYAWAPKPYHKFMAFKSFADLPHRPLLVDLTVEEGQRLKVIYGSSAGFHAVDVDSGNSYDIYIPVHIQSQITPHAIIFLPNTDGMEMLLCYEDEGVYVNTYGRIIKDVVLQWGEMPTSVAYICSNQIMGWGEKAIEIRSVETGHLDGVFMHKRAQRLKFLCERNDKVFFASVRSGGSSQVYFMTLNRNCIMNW
Excerpt: as §1

MKNK1 = MKNK1 (Homo sapiens, UniProt Q9BUB5)
Excerpt: as §1

MYO3B = MYO3B (Homo sapiens, UniProt Q8WXR4)
Excerpt: as §1

NEK5 = NEK5 (Homo sapiens, UniProt Q6P3R8)
Excerpt: as §1

PFTAIRE2 = biological target: T7, PFTAIRE2 (Homo sapiens, UniProt Q96Q40)
T7 construct: gene CDK15
Excerpt: as §1

RIOK1 = RIOK1 (Homo sapiens, UniProt Q9BRS2)
Sequence of RIOK1 (Q9BRS2 whole entry): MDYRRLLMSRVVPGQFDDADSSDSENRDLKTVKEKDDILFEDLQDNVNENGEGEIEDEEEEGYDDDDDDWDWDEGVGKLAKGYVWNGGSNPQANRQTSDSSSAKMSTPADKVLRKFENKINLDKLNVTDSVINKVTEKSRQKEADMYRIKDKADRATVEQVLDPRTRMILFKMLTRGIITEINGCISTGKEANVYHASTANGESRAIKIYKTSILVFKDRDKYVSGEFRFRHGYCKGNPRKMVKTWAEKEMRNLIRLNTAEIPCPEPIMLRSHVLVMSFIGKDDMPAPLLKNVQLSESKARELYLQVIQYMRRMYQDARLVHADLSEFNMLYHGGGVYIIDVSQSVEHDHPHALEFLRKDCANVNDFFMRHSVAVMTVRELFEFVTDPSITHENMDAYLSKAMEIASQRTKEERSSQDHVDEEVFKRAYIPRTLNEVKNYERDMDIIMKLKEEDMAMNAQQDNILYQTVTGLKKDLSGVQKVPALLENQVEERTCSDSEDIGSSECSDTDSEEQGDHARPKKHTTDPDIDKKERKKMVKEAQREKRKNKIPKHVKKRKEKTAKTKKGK
Excerpt: as §1

SGK = biological target: T8, SGK (Homo sapiens, UniProt O00141)
T8 construct: gene SGK1
Excerpt: as §1

STK16 = STK16 (Homo sapiens, UniProt O75716)
Sequence of STK16 (O75716 whole entry): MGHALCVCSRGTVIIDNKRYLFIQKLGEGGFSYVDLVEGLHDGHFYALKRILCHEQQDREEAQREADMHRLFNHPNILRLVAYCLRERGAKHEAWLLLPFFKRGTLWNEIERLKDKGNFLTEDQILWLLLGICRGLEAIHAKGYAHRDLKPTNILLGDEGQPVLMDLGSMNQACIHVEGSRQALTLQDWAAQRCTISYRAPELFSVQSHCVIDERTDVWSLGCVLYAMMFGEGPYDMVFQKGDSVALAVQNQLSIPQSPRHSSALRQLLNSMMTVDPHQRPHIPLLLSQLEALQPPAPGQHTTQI
Excerpt: as §1

Cn1c(=O)[nH]c2ccc(-c3cccc(C(=O)NC4CCn5ccnc5C4)c3)cc21 (stereo not shown) [Z36-MP5]
remaining binding at 1 µM [1]: 83% | remaining binding at 1 µM (ACVR2A): 57% | remaining binding at 1 µM (ARK5): 98% | remaining binding at 1 µM (AURKC): 100% | remaining binding at 1 µM (BMPR2): 62% | remaining binding at 1 µM (BRAF(V600E)): 89% | remaining binding at 1 µM (BRK): 100% | remaining binding at 1 µM (CDC2L5): 55% | remaining binding at 1 µM (CSNK2A2): 63% | remaining binding at 1 µM (DAPK3): 89% | remaining binding at 1 µM (EGFR(L861Q)): 69% | remaining binding at 1 µM (FER): 90% | remaining binding at 1 µM (FLT3): 95% | remaining binding at 1 µM (FLT3(ITD)): 92% | remaining binding at 1 µM (IGF1R): 97% | remaining binding at 1 µM (MARK3): 100% | remaining binding at 1 µM (MEK6): 99% | remaining binding at 1 µM (MINK): 69% | remaining binding at 1 µM (MKNK1): 100% | remaining binding at 1 µM (MYO3B): 91% | remaining binding at 1 µM (NEK5): 90% | remaining binding at 1 µM (PFTAIRE2): 90% | remaining binding at 1 µM (RIOK1): 47% | remaining binding at 1 µM (SGK): 68% | remaining binding at 1 µM (STK16): 31%
